# Measured values: patent US20100016172A1, “Nucleic acid binding assay materials and methods” (priority 2007, published 2010)
# Like-named read-outs stand apart in the source and are kept apart here.
# Assays:
# G-rich hairpin DNA [1] = test: Piper electrophoretic mobility shift assay; type: binding; conditions: 5 μM of PIPER
# Method: (§1) The dotted line represents residues that are disordered in the crystal structure. The Exd residue R2C, is the unstructured amino acid to which the Cy3 dye is attached. […] The G-rich DNA in the absence of Exd has a band (bottom arrow), which is higher than the Consensus DNA shift with Exd and polyamide.
# (§2) Piper Electrophoretic Mobility Shift Assay (FIG. 6D). The G-rich and Consensus hairpin DNA (same DNA as used in Hairpin Induction for EMSA) were incubated with increasing PIPER (Humphrey, W., Dalke, A. & Schulten, K. (1996) J. Mol. Graphics 14, 33-38) concentrations. PIPER final concentrations were […]. The gels were run and processed as above using an 8% acrylamide/3% glycerol gel with 0.5×TBE.
# Consensus hairpin DNA = test: Piper electrophoretic mobility shift assay; type: binding; conditions: 5 μM of PIPER
# Method: as §1, §2
# DNA hairpin target array = test: CSI array binding assay of Cy3-labeled Exd alone or with polyamide-peptide conjugates; conditions: for Motifs emerging from polyamide-Exd CSI data: in addition to G-stretches, Exd 20 nM, polyamide 50 nM
# Method: Protein Binding: The microarrays were washed with 150 mM K-glutamate, 50 mM HEPES pH 7.5, 5% glycerol (reaction buffer), for 5 minutes. […] This solution was added to the hybridization chamber and incubated for 30 minutes. Subsequently, the microarrays were washed with reaction buffer and scanned.
# To determine the sequence specificity of Exd, we labeled it with Cy3 at a unique cysteine residue on an unstructured portion of the protein (FIG. 6) (Passner, J. M., Ryoo, H. D., Shen, L., Mann, R. S. & Aggarwal, A. K. (1999) Nature 397, 714-719).
# Array design for Hox/Exd Cooperative Binding Assay. The duplex DNA sequences are designed as self-complementary palindromes interrupted at the center by a TCCT sequence to facilitate the formation of DNA hairpins (FIG. 7). The 34 residue oligonucleotide is synthesized directly on the glass surface using a maskless array synthesizer (Singh-Gasson, S., Green, R. D., Yeu, Y., Nelson, C., Blattner, F., Sussman, M. R., Cerrina, F. (1999) Nat. Biotechnol. 17, 974-978) that can readily create up to 786,000 spatially resolved features. The unimolecular construction of duplex DNA allows the array to be reused several times without appreciable loss of information. After inducing hairpin formation, we find that greater than 95% of the oligonucleotides in the array form duplexes. In our hairpin design, we added three constant base pairs on either side of the 8 base pairs that were permuted (N′-8).
# PA2 and PA3 (ImImPy*Py-γ-ImPyPyPy-β-Dp) are designed to target the sequence 5′-WGWCCW-3′. […] PA2 and PA3 differ solely by a single methylene in the linker connecting the Exd binding peptide to the polyamide (FIG. 8A) (Hauschild, K. E., Metzler, R. E., Arndt, H. D., Moretti, R., Raffaelle, M., Dervan, P. B., Ansari, A. Z. (2005) Proc. Natl. Acad. Sci. U.S.A. 102, 5008-5013). Since these polyamides are not fluorescently labeled, we detect cognate sites bound cooperatively by synthetic Hox mimics and Exd, as well as sites bound by Exd alone.
# The raw array data for the above experiments were treated as described in Example 2. […] The Exd binding motif is 5′-NGAN-3′, which is consistent with the structural and genetic studies of Hox-Exd cognate sites (White, R. A., Aspland, S. E., Brookman, J. J., Clayton, L. & Sproat, G. (2000) Mech. Dev. 91, 217-226). In other words, the 5′-GA-3′ dinucleotide is the only required sequence determinant for Exd binding to DNA. Remarkably, the array identified the differences in the arrangement of polyamide and Exd binding sites due to ˜1.25 Å difference in the linker length between PA2 and PA3 (FIG. 8C). The other important result that emerges is that cooperative ternary assembly with Exd stabilizes binding of synthetic Hox mimics to truncated sites (5′-WGWC-3′). This is often seen in nature, where cooperative assembly of transcription factors utilizes sub-optimal binding sites to ensure that only a higher order complex can efficiently bind to a regulatory element (Thanos, D. & Maniatis, T. (1996) Methods Enzymol. 274, 162-173; Ptashne, M. & Gann, A. Genes and Signals. (2002) CSHL Press, New York).
# [2] = system: DNA cognate sites (sequences used in the footprints); conditions: footprinting, cited from earlier work
# [3] = system: 8-position sequence variation DNA hairpin target array; test: CSI array binding assay of PA1 (Cy3 fluorescence intensity)
# From the text: Hairpin Target CSI Microarray. Each hairpin target was composed of a central permuted 8 base pair region with X^1 with a three base pair CGC sequence anchor region flanking either end, with a complementary sequence on X^2. A fluorescently tagged nucleic acid binding assay molecule was applied to the microarray to generate the nucleic acid binding profile for that assay molecule. Analysis of the array signal intensity gives rise to a reference grid showing the binding intensity output for the array. High intensity features indicate tight binding of the assay molecule to that specific target sequence.
# Binding Assay: Microarray slides were immersed in 1×PBS (Phosphate Buffered Saline) and placed in a 90° C. water bath for 30 minutes to induce hairpin formation of the oligonucleotides. Slides were then transferred to a tube of non-stringent wash buffer (Saline-Sodium Phosphate-EDTA Buffer, 0.01% v/v Tween-20) and scanned to check for low background (<200 intensity). Microarrays were scanned using a ScanArray 5000 and the image files extracted with GenePix Pro version 3.0.
# Polyamide binding: Microarrays prepared as above were placed in the microarray hybridization chamber and washed twice with non-stringent wash buffer. Polyamide was diluted to 5 nM in Hyb buffer (100 mM MES, 1 M NaCl, 20 mM EDTA, 0.01% v/v Tween-20). Polyamide (5 nM) was then added to the hybridization chamber and incubated at room temperature overnight (16 hours). Finally, the microarrays were washed twice with non-stringent wash buffer and scanned.
# The array-to-array variability was very low with an average correlation coefficient of 0.88 (FIG. 4A). […] The duplicate features within an array and replicate features between arrays were averaged together to give finalized intensities. These averaged intensities were then converted into Z-scores [z=signal−meant/standard deviation] to reflect the signal-to-noise ratio.
# Data Processing: For each replicate, global mean normalization was used to ensure the mean intensity of each microarray was the same. Local mean normalization (Colantuoni, C., Henry, G., Zeger, S. & Pevsner, J. (2002) Bioinformatics 18, 1540-1541) was then used to ensure the intensity was evenly distributed throughout each sector of the microarray surface. Outliers between replicate features were detected using the Q-test at 90% confidence and filtered out. The replicates were then quantile normalized (Bolstad, B. M., Irizarry, R. A., Astrand, M. & Speed, T. P. (2003) Bioinformatics 19, 185-193) in order to account for any possible non-linearity between arrays. Duplicate features were then averaged together. The median of the averaged features was subtracted to account for background.
# Z-scores were calculated as |signal−median|/standard deviation. Due to the right-handed tail effect, standard deviation of the background signal was based upon the standard deviation from the median of all signals less than the median. The relationship of Z-score to P-value can be found in Table 1, below. Motifs were then found by running several motif finding algorithms (Bailey, T. L. & Elkan, C. (1994) Proc. of the 2nd Intl. Conference on Intelligent Systems for Mol. Biol., AAAI Press, Menlo Park, Calif., 28-36; Hughes, J. D., Estep, P. W., Tavazoie, S. & Church, G. M. (2000) J. Mol. Biol. 296, 1205-1214; Liu, X. S., Brutlag, D. L. & Liu, J. S. (2002) Nat. Biotechnol. 20, 835-839) on sequences in the highest Z-score bin. Logos (Schneider, T. D. & Stephens, R. M. (1990) Nucl. Acids Res. 18, 6097-6100) of each motif were then created by using sequences from the highest Z-score bin that contained the motif.
# [4] = molecular target: T1, Extradenticle (Exd) homeodomain (Drosophila melanogaster, UniProt P40427 SEQ:1-63); test: EMSA; 100 nM Exd; band completely shifted; polyamide has no effect; K-glutamate 150 mM, HEPES pH 7.5; conditions: tags: none stated for EMSA; label: 32P; hairpin design; likely G-quadruplex
# T1 sequence: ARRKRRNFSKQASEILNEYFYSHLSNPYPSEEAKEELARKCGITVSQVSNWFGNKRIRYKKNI
# Method: Electrophoretic Mobility Shift Assays: 40mer DNA sequences labeled with ³²P (as per standard methods) were used in all reactions. Reactions were performed in a buffer composed of 150 mM Potassium Glutamate, 50 mM HEPES pH=7.5, 2 mM DTT, 100 ng/μL of BSA, 10% DMSO, and 10% glycerol. For the binding tests, polyamide-peptide conjugates (50 nM final concentration) and ³²P-DNA were incubated together for 30 minutes at 4° C. Exd was then added to bring the reaction volume to 20 μL. Exd final concentrations were 0.033, 0.1, 0.33, 1, 3.3, 10, 33, and 100 nM. These reactions were incubated at 4° C. for 1 hour and then 15 μL was loaded onto a pre-run 10% acrylamide/3% glycerol gel (1×TBE).
# (§3) Hairpin Induction for Electrophoretic Mobility Shift Assay (Supplementary Figure S4B). Hairpin DNA was formed by heating synthesized ssDNA to 95° C. for 5 minutes and then rapidly cooling them on ice. The 34mer DNA […] were then labeled with ³²P (as per standard methods). For the hairpin electrophoretic mobility shift assays the concentrations of polyamide used were 50 nM, and Exd was present at a concentration of 100 nM. The reactions were performed in the above buffer and the gels were then run as before with the following exceptions: the gels were 8% acrylamide/3% glycerol gel with 0.5×TBE.
# G-rich hairpin DNA [5] = test: Hairpin electrophoretic mobility shift assay with Exd and polyamide; type: binding; conditions: upon addition of Exd (100 nM)
# Method: as §1
# as §3, with “^32P” for “³²P”
molecule,measurement,setting,value
"O=C1c2ccc3c4ccc5c6c(ccc(c7ccc(c2c37)C(=O)N1CCN1CCCCC1)c64)C(=O)N(CCN1CCCCC1)C5=O [PIPER, N,N-Bis[2-(1-piperidino)ethyl]-3,4,9,10-perylenetetracarboxylic diimide]",Aggregation of DNA (immobility from the well),G-rich hairpin DNA [1],significant aggregation
same,Aggregation of DNA (immobility from the well),Consensus hairpin DNA,does not
ImImPy*Py-γ-ImPyPyPy-β-Dp [PA2],Motifs emerging from polyamide-Exd CSI data,DNA hairpin target array,three clear motifs
ImImPy*Py-γ-ImPyPyPy-β-Dp [PA3],Motifs emerging from polyamide-Exd CSI data,DNA hairpin target array,only two of those motifs
ImPy*PyPy-γ-ImPyPyPy-β-Dp [PA1],Ka,"[2]; Data Point A, sequence ATGTACAT",70 10^9 M^−1
same,Ka,"[2]; Data Point B, sequence AGTACT",37 10^9 M^−1
same,Ka,"[2]; Data Point C, sequence ATCTACAT",3.2 10^9 M^−1
same,Ka,"[2]; Data Point D, sequence ATATACAT",2.8 10^9 M^−1
same,Ka,"[2]; Data Point E, sequence ATGTATTT",0.41 10^9 M^−1
same,Intensity,"[3]; Data Point A, average of all features containing ATGTACAT",19715
same,Intensity,"[3]; Data Point B, average of all features containing AGTACT",10952
same,Intensity,"[3]; Data Point C, average of all features containing ATCTACAT",3035.5
same,Intensity,"[3]; Data Point D, average of all features containing ATATACAT",2073.25
same,Intensity,"[3]; Data Point E, average of all features containing ATGTATTT",1426.5
same,Intensity relative to other permutations of the consensus sequence,[3]; all sequences containing 5′-WWGATCWW-3′,significantly lower intensities
same,Effect of substitution on binding,[3]; double substitution at positions 3 and 6 to W (A/T stretch),retains its ability to bind PA1
same,Effect of substitution on binding,[3]; replacing one of the S residues at positions 6 (or 3′) with a W,"significantly attenuates, but does not abolish binding"
same,Effect of substitution on binding,[3]; substituting an S (G or C) at position 8,only subtly decreases binding
same,Effect of substitution on binding,[3]; substituting any other position that prefers a W with an S residue,nearly abolishes binding
CGCCCCCCCCCCGCTCCTGCGGGGGGGGGGCGTTTT (structured_DNA) [G-rich hairpin DNA],binding result,[4],binds
"Exd: transcription factor essential in Drosophila development; used Cy3-labeled (Exd R2C, residues 1-88) on the array (protein, UniProt P40427 1-88, looked up, fragment, Cy3 label, transcription factor essential in Drosophila development; used Cy3-labeled (Exd R2C, residues 1-88) on the array) MEDPNRMLAHTGGMMAPQGYGLSGQDDGQNAGSENEVRKQKDIGEILQQIMSISEQSLDEAQARKHTLNCHRMKPALFSVLCEIKEKT",Exd binding motif,DNA hairpin target array; Cy3-labeled Exd with PA2 or PA3,5′-NGAN-3′
same,Sequence preference,DNA hairpin target array; Exd alone,unexpected preference for stretches of consecutive G-residues
same,Sequence-specific binding,"DNA hairpin target array; Exd alone, 0.2-200 nM",little sequence-specific binding
same,Band shift of G-rich DNA,G-rich hairpin DNA [5],completely shifted
